# Values of other authors in patent US20090004049A1, “Method of irradiation using process of adding vitamin C” (priority 2007, published 2009).
# Test system: patients with cancer
# Conditions: 10 g of vitamin C administered to patients with cancer
compound,measurement,value
O=C1O[C@H]([C@@H](O)CO)C(O)=C1O [vitamin C],increase of survival rate of patients compared with control,4 times
